Laboratory results: PubChem BioAssay AID1963970 (Molecular Pharmacology Branch, DTP, NCI, 2024)
Where “and” joins values, the source holds several entries; their conditions need not be identical. Identical values can stand only once. Blank lines part the entries; values can stand above or below the molecule they belong to.

Test system: 931267-113-T-J1-PDC multicell spheroid viability
Assay: Anticancer human tumor 931267-113-T-J1-PDC patient-derived colon adenocarcinoma cell line growth inhibition [PI3K]
Details: for viability, T/C: stronger effect = lower value
In short: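 Viability of mixed-cell spheroids was determined after exposure to pairwise combinations, one partner being inavolisib, alpelisib, duvelisib or copanlisib. Highest tested concentration matched clinical Cmax where known and 10 microM where not, descending in half-log steps.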

[1] = curve of first compound, second compound 0.0316 µM
[2] = curve of first compound, second compound 0.1 µM
[3] = curve of first compound, second compound 0.316 µM
[4] = curve of first compound, second compound 1 µM
[5] = second compound 0.0316 µM, first compound 0.0316 µM
[6] = second compound 0.0316 µM, first compound 0.1 µM
[7] = second compound 0.0316 µM, first compound 0.316 µM
[8] = second compound 0.0316 µM, first compound 1 µM
[9] = second compound 0.0316 µM, first compound 3.16 µM
[10] = second compound 0.0316 µM, first compound 10 µM
[11] = second compound 0.1 µM, first compound 0.0316 µM
[12] = second compound 0.1 µM, first compound 0.1 µM
[13] = second compound 0.1 µM, first compound 0.316 µM
[14] = second compound 0.1 µM, first compound 1 µM
[15] = second compound 0.1 µM, first compound 3.16 µM
[16] = second compound 0.1 µM, first compound 10 µM
[17] = second compound 0.316 µM, first compound 0.0316 µM
[18] = second compound 0.316 µM, first compound 0.1 µM
[19] = second compound 0.316 µM, first compound 0.316 µM
[20] = second compound 0.316 µM, first compound 1 µM
[21] = second compound 0.316 µM, first compound 3.16 µM
[22] = second compound 0.316 µM, first compound 10 µM
[23] = second compound 1 µM, first compound 0.0316 µM
[24] = second compound 1 µM, first compound 0.1 µM
[25] = second compound 1 µM, first compound 0.316 µM
[26] = second compound 1 µM, first compound 1 µM
[27] = second compound 1 µM, first compound 3.16 µM
[28] = second compound 1 µM, first compound 10 µM
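Also: viability read 7 days after compound addition.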

IC50 [1]: 6.31 µM
IC50 [2]: 5.39 µM
IC50 [3]: 5.52 µM
IC50 [4]: 4.31 µM
IC50 (curve of first compound, second compound 3.16 µM): 4.15 µM
IC50 (curve of first compound, second compound 10 µM): 2.63 µM
Compound: Cn1ncc(Cl)c1-c1cc(C(=O)NC(CN)Cc2cccc(F)c2)sc1Cl (stereo unspecified) + Cc1nc(NC(=O)N2CCCC2C(N)=O)sc1-c1ccnc(C(C)(C)C(F)(F)F)c1
viability, T/C [5]: 97.3%
viability, T/C [6]: 89%
viability, T/C [7]: 88.7%
viability, T/C [8]: 73.6%
viability, T/C [9]: 79.7%
viability, T/C [10]: 33.6%
viability, T/C [11]: 101%
viability, T/C [12]: 86%
viability, T/C [13]: 91.4%
viability, T/C [14]: 85%
viability, T/C [15]: 68.3%
viability, T/C [16]: 29.4%
viability, T/C [17]: 89.3%
viability, T/C [18]: 94%
viability, T/C [19]: 83.2%
viability, T/C [20]: 85.9%
viability, T/C [21]: 68.2%
viability, T/C [22]: 30.2%
viability, T/C [23]: 84.3%
viability, T/C [24]: 84.7%
viability, T/C [25]: 77%
viability, T/C [26]: 68.7%
viability, T/C [27]: 59.9%
viability, T/C [28]: 30.1%
viability, T/C (second compound 3.16 µM, first compound 0.0316 µM): 73.6%
viability, T/C (second compound 3.16 µM, first compound 0.1 µM): 61.7%
viability, T/C (second compound 3.16 µM, first compound 0.316 µM): 66.9%
viability, T/C (second compound 3.16 µM, first compound 1 µM): 63.8%
viability, T/C (second compound 3.16 µM, first compound 3.16 µM): 58.8%
viability, T/C (second compound 3.16 µM, first compound 10 µM): 23.5%
viability, T/C (second compound 10 µM, first compound 0.0316 µM): 69.9%
viability, T/C (second compound 10 µM, first compound 0.1 µM): 61.6%
viability, T/C (second compound 10 µM, first compound 0.316 µM): 58.7%
viability, T/C (second compound 10 µM, first compound 1 µM): 60.5%
viability, T/C (second compound 10 µM, first compound 3.16 µM): 48.9%
viability, T/C (second compound 10 µM, first compound 10 µM): 21.9%

IC50 (curve of first compound, second compound 0.00316 µM): 6.3 µM
IC50 (curve of first compound, second compound 0.01 µM): 5.98 µM
IC50 [1]: 5.83 µM
IC50 [2]: 4.99 µM
IC50 [3]: 3.66 µM
IC50 [4]: < 0.0316 µM
Compound: CCCS(=O)(=O)Nc1ccc(F)c(C(=O)c2c[nH]c3ncc(-c4ccc(Cl)cc4)cc23)c1F + COc1c(OCCCN2CCOCC2)ccc2c3n(c(=NC(=O)c4cnc(N)nc4)nc12)CCN3
viability, T/C (second compound 0.00316 µM, first compound 0.0316 µM): 111%
viability, T/C (second compound 0.00316 µM, first compound 0.1 µM): 116%
viability, T/C (second compound 0.00316 µM, first compound 0.316 µM): 104%
viability, T/C (second compound 0.00316 µM, first compound 1 µM): 125%
viability, T/C (second compound 0.00316 µM, first compound 3.16 µM): 127%
viability, T/C (second compound 0.00316 µM, first compound 10 µM): 5.18%
viability, T/C (second compound 0.01 µM, first compound 0.0316 µM): 102%
viability, T/C (second compound 0.01 µM, first compound 0.1 µM): 101%
viability, T/C (second compound 0.01 µM, first compound 0.316 µM): 108%
viability, T/C (second compound 0.01 µM, first compound 1 µM): 109%
viability, T/C (second compound 0.01 µM, first compound 3.16 µM): 110%
viability, T/C (second compound 0.01 µM, first compound 10 µM): 5.04%
viability, T/C [5]: 87.8%
viability, T/C [6]: 92.2%
viability, T/C [7]: 93.3%
viability, T/C [8]: 111%
viability, T/C [9]: 101%
viability, T/C [10]: 8.61%
viability, T/C [11]: 75.4%
viability, T/C [12]: 68.6%
viability, T/C [13]: 77.2%
viability, T/C [14]: 85.2%
viability, T/C [15]: 77.6%
viability, T/C [16]: 9.09%
viability, T/C [17]: 55.8%
viability, T/C [18]: 51.3%
viability, T/C [19]: 59.2%
viability, T/C [20]: 56.7%
viability, T/C [21]: 57.2%
viability, T/C [22]: 8.55%
viability, T/C [23]: 36.3%
viability, T/C [24]: 39.5%
viability, T/C [25]: 36.3%
viability, T/C [26]: 41.4%
viability, T/C [27]: 39.7%
viability, T/C [28]: 10.2%

IC50 (curve of compound): 0.0848 µM and 0.0924 µM and > 0.1 µM
Compound: CC(C)n1nc(-c2ccc3oc(N)nc3c2)c2c(N)ncnc21
viability, T/C (compound 0.000316 µM): 101% [middle of 4 runs]
viability, T/C (compound 0.001 µM): 88.2% and 95% (2×) and 92.1%
viability, T/C (compound 0.00316 µM): 96.8% [middle of 4 runs]
viability, T/C (compound 0.01 µM): 96.1% [middle of 4 runs]
viability, T/C (compound 0.0316 µM): 81.6% [middle of 4 runs]
viability, T/C (compound 0.1 µM): 52.2% [middle of 4 runs]
